Data set [1] has as its target Pim1 (Homo sapiens, UniProt P11309). The data set can be described thus: ADP-Glo protein kinase assay, Pim1. It counts as biochemical. Particulars: for % of kinase activity that remained, Pim1: 10 µM ATP, normalized to DMSO control, mean n = 2. As to the method:
(§1) Kinase enzymatic activities were assayed in 384-well plates using the ADP-Glo^TM assay kit, following the recommendations of the manufacturer (Promega, Madison, WI). Controls were performed in appropriate dilutions of dimethyl sulfoxide (DMSO). Kinase activities, measured in the presence of 10 µM ATP, are expressed as percentage of maximal activity, i.e., measured in the absence of inhibitor. In order to determine the half-maximal inhibitory concentration (IC50), the assays were performed in duplicate in the absence or presence of increasing doses of the tested compounds. Data were analyzed using GraphPad PRISM (GraphPad Software, San Diego, CA, USA) software to fit a sigmoïdal curve that allowed determination of the IC50 values. The experimental conditions used for measuring kinase activities are comprehensively described in Ibrahim et al.. Human recombinant ABL1 mutant (T315I) was purchased from Promega (Catalog # V5320) and tested following the recommendations of the manufacturer (Promega, Madison, WI, USA).

For data set [2], the target named is GSK-3β (Homo sapiens, UniProt P49841). The data set can be described thus: ADP-Glo protein kinase assay, GSK-3β. Particulars: for % of kinase activity that remained, GSK-3β: 10 µM ATP, normalized to DMSO control, mean n = 2. The data set is classed as biochemical. How it is done:
as §1

The target in data set [3] is CK1ε (Homo sapiens, UniProt P49674). The data set can be described thus: ADP-Glo protein kinase assay, CK1ε. It counts as biochemical. Particulars: for % of kinase activity that remained, CK1ε: 10 µM ATP, normalized to DMSO control, mean n = 2. As to the method: as §1
Data set [4] deals with T1, JAK3 (Homo sapiens, UniProt P52333).
T1 sequence (P52333 1-1124): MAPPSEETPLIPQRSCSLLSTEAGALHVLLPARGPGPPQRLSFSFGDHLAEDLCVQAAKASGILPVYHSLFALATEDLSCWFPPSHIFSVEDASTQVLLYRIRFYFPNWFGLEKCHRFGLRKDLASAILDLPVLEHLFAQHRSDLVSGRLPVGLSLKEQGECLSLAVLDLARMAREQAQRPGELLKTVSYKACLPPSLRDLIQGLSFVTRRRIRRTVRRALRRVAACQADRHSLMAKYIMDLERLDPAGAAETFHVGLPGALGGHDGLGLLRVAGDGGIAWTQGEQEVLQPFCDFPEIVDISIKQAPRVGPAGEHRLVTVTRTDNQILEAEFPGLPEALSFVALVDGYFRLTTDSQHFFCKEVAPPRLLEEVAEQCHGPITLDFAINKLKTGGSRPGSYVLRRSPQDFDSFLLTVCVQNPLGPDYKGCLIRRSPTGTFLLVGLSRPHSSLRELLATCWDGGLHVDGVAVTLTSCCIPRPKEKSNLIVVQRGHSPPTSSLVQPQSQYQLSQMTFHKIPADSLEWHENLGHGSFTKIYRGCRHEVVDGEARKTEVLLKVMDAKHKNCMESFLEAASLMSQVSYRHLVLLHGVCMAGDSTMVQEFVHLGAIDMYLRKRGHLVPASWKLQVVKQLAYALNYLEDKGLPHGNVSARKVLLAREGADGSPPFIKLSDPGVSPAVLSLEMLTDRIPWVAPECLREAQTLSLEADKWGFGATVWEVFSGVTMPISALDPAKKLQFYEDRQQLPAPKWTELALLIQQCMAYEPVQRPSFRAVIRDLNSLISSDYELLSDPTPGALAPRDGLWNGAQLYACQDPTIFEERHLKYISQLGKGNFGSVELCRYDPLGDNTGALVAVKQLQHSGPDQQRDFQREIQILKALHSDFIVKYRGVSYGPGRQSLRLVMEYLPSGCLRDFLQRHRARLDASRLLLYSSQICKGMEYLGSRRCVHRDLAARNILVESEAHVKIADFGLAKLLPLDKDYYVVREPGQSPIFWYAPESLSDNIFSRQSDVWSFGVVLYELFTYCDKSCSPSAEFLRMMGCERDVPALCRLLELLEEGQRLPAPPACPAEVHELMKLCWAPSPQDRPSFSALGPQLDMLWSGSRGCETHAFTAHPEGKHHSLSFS
The data set can be described thus: ADP-Glo protein kinase assay, JAK3. The data set is classed as biochemical. Particulars: for % of kinase activity that remained, JAK3: 10 µM ATP, normalized to DMSO control, mean n = 2. As to the method: as §1

The target of data set [5] is ABL1 (Homo sapiens, UniProt P00519). The data set can be described thus: ADP-Glo protein kinase assay, ABL1. The data set is classed as biochemical. Particulars: for % of kinase activity that remained, ABL1: 10 µM ATP, normalized to DMSO control, mean n = 2. How it is done:
as §1, with “Kinase activities, measured in the presence of 10 µM ATP, are expressed as percentage of maximal activity, i.e., measured in the absence of inhibitor.” left out

The target in data set [6] is VEGFR2 (Homo sapiens, UniProt P35968). The data set can be described thus: ADP-Glo protein kinase assay, VEGFR2. It counts as biochemical. How it is done: as §1
The subject of data set [7] is phospho-ERK1/2 (Thr202/Tyr204). The data set can be described thus: Immunoblot of phospho-ERK1/2 in K562S cells. It counts as cell-based, human. Particulars: 6 h treatment, ImageJ band quantification. How it is done: The concentration of DMSO in the culture medium was 1%. Cell lysates were prepared by sonication of the cells in homogenization buffer with 0.5% of nonidet P-40 non-ionic detergent (NP-40) as described previously. SDS-PAGE and immunoblotting were performed following standard procedures. Anti-α-tubulin antibody (clone B512, T5168, 1:5000) was purchased from Sigma Aldrich (St. Louis, MO, USA). The anti-phospho-p44/42 MAPK (#28733–1-AP, 1:2000) was purchased from Proteintech® (Rosemont, IL, USA). This rabbit polyclonal antibody detects p44 and p42 MAPK when doubly phosphorylated (at Thr202 and Tyr204 of p44 and at Thr185 and Tyr187 of p42 MAPK).

The target in data set [8] is ABL1 mutant (T315I) (Homo sapiens, UniProt P00519, T315I). Particulars: inhibitor at 1 µM; 10 µM ATP; compared with wild type ABL1.
Experimental: Effect of the T315I ABL1 kinase domain mutation on the inhibition by betulin. We selected 1 µM
We measured inhibition of mutant and WT ABL1 kinase activities by betulin and by
imatinib, using the ADP-Glo luminescent assay. ATP concentration used in the kinase assays was 10 µM.
Data are mean (N=3, n=3) ± SEM expressed as % of residual kinase activity, normalized to the DMSO control.
The conditions of data set [9]: cited from earlier work.
For data set [10] the following is noted: ref ChemSpider database, Royal Society of Chemistry; cited from earlier work.
[11] abbreviates: betulin purified from Acacia auriculiformis at 10 µg/mL.
The mark [12] stands for this setting: betulin purified from Acacia auriculiformis at 1 µg/mL.

“And” between values parts separate entries of the source, which are not always exact repeats. Equal values may be shown once. A value given as a limit tells only on which side of the number the result lay.

Sequence of GSK-3β (P49841 whole entry): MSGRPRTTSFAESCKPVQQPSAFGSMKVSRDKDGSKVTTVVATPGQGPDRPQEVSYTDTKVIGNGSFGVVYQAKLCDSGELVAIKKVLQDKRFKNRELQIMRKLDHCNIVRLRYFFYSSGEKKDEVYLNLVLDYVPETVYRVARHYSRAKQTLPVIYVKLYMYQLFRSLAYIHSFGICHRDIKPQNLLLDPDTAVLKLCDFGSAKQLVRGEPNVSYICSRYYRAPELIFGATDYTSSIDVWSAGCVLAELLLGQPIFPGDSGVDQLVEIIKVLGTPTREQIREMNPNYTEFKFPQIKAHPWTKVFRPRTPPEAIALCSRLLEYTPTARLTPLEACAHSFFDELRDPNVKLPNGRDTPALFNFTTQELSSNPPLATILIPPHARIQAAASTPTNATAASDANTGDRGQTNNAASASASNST
Sequence of Pim1 (P11309 whole entry): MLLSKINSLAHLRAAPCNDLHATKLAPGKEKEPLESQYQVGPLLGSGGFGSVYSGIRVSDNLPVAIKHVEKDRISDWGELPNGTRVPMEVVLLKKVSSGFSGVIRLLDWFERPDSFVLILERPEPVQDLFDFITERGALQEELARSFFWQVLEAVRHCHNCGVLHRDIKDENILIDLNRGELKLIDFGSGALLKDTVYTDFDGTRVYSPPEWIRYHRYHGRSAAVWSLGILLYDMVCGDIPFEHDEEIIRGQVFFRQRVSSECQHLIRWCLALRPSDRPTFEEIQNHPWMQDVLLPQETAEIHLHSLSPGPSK
Sequence of CK1ε (P49674 whole entry): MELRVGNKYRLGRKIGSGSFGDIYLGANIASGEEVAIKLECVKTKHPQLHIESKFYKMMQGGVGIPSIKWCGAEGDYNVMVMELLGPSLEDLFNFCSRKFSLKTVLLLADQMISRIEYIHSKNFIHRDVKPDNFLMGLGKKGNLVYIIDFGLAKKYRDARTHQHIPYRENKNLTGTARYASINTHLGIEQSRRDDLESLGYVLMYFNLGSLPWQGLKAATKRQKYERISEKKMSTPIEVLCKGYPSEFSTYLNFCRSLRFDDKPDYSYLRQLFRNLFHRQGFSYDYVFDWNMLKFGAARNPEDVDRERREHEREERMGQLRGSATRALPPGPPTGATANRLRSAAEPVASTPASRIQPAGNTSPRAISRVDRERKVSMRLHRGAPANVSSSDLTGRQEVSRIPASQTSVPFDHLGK
Sequence of VEGFR2 (P35968 20-1356): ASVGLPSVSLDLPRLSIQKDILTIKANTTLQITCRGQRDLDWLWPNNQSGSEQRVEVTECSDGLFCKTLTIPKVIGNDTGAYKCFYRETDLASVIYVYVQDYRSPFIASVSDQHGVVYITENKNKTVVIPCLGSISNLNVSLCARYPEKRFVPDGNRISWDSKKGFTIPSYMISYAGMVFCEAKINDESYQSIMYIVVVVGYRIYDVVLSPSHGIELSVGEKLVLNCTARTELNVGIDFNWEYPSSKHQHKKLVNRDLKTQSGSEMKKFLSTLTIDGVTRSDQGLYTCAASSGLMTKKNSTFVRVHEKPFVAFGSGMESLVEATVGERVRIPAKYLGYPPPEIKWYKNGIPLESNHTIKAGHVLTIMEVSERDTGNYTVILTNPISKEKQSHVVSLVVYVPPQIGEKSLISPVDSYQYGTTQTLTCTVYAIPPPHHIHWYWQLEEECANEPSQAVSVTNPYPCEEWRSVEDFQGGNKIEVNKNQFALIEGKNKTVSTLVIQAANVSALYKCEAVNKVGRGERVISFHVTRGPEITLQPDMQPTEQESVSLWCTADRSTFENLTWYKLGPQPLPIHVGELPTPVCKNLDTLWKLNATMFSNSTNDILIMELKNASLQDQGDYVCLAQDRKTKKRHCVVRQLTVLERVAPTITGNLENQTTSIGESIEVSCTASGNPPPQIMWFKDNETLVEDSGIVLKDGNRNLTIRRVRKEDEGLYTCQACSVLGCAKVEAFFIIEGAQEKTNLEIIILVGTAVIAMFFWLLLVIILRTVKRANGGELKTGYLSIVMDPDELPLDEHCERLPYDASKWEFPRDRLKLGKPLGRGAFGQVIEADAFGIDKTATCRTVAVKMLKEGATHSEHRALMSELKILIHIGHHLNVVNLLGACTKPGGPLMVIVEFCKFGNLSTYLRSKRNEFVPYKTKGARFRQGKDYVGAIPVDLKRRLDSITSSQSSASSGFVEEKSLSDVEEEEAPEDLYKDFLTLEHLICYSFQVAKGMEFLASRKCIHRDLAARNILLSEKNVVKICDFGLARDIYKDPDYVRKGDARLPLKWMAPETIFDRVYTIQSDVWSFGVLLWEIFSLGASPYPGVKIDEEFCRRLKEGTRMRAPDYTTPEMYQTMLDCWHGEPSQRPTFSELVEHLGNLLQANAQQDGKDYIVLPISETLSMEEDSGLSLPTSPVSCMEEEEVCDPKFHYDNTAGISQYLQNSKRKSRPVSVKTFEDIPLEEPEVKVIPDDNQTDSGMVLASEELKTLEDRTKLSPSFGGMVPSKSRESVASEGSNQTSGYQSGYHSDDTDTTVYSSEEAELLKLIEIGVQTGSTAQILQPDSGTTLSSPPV

For `C=C(C)[C@@H]1CC[C@]2(CO)CC[C@]3(C)[C@H](CC[C@@H]4[C@@]5(C)CC[C@H](O)C(C)(C)[C@@H]5CC[C@]43C)[C@@H]12` [Betulin, 3-lup-20(29)-ene-3β,28-diol], the “% of kinase activity that remained, Pim1” value in [1] (betulin purified from Acacia auriculiformis at 1 µg/mL, ≥100 = no detectable inhibition) is given as at least 100%; in data set [1] (setting [11]), 90%. For the same compound, the inhibition at 10 µg/mL in data set [1] (read-out: inhibition of kinase activity, Pim1) turned out to be 10%; in data set [5] (read-out: inhibition of kinase activity, ABL1) it was 79%. The IC50 in data set [2] was found to be 1060 nM; in data set [3], 2110 nM; in [4], 1080 nM; in data set [5], 930 nM; in data set [6] it was 2450 nM. Besides, the “% of kinase activity that remained, GSK-3β” value in data set [2] (setting [12]) came to 38%; in [2] (setting [11]) it was 30%. The “% of kinase activity that remained, CK1ε” value is given as 53% in [3] (setting [12]) and 48% in data set [3] (setting [11]). The “% of kinase activity that remained, JAK3” value was determined as 28% in data set [4] (setting [12]) and 25% in data set [4] (setting [11]). For the same compound, the “inhibition of the ABL1 activity in ATP competition assay” value in [5] (10 µM betulin, 100 µM ATP compared with 10 µM ATP) is “significantly decreased”. In addition, the results for the “% of kinase activity that remained, ABL1” value in data set [5] (setting [12]) and in data set [5] (setting [11]) were 36% and 21%, respectively. The “%pERK/Tubulin” value is recorded as 71.3% in data set [7] (50 µM) and 48.3% in [7] (100 µM). Besides, in [8], the “inhibition of the enzymatic activity of T315I mutant of ABL1” value was “retains its capacity to inhibit”. In addition, the solubility in water in data set [9] is 0.08 μg/mL and 0.18 µM. The “predicted Octanol-Water Partition Coefficient (LogP)” value in data set [10] is listed as 9.01.

(Values after article PMC8347092, “Betulin, a Newly Characterized Compound in Acacia auriculiformis Bark, Is a Multi-Target Protein Kinase Inhibitor” (Molecules, 2021).)
